{"source": "paper PMC8653067", "about": "(ChemMedChem, 2021)", "key": {"PLpro from SARS-CoV-2 [1]": {"biological_target": "T1, PLpro from SARS-CoV-2 (Severe acute respiratory syndrome coronavirus 2, UniProt P0DTD1)", "format": "biochemical", "conditions": "for IC50: read-out: IC50 (µM) determined using Z-LRGG-AMC as a PLpro substrate"}, "PLpro from SARS-CoV-2 [2]": {"biological_target": "T1, PLpro from SARS-CoV-2", "format": "biochemical", "conditions": "for Extent of PLpro inhibition in IC50 assay (in words): 5 μM Ub-AMC substrate; for IC50: read-out: IC50 (µM) determined using Ub-AMC as a PLpro substrate, 20 nM PLpro, 5 μM Ub-AMC, triplicates"}, "PLpro from SARS-CoV-2 [3]": {"biological_target": "T1, PLpro from SARS-CoV-2", "format": "biochemical"}, "[4]": {"biological_target": "ubiquitin C-terminal hydrolase L3", "conditions": "read-out: reported IC50 for ubiquitin C-terminal hydrolase L3; cited from earlier work"}, "[5]": {"conditions": "20 nM PLpro, 50 μM Z-LRGG-AMC, triplicates"}, "[6]": {"conditions": "200 μM inhibitor, 20 nM PLpro, 50 μM Z-LRGG-AMC"}, "[7]": {"conditions": "Z-LRGG-AMC substrate, highest tested concentration 200 μM"}}, "note": "Entries after “also recorded” stand apart in the source; their conditions may differ. Read-outs that look alike come from different tables or passages of the source."}
{"compound": "N#Cc1nc2c(nc1C#N)-c1ccccc1/C2=N\\OCc1ccccc1", "note": "[DUB-IN-1]", "values": [{"measurement": "IC50", "setting": "PLpro from SARS-CoV-2 [1]; [5]", "value": "> 100", "unit": "µM"}]}
{"compound": "CCO/N=C1\\c2ccccc2-c2nc(C#N)c(C#N)nc21", "note": "[DUB-IN-2]", "values": [{"measurement": "IC50", "setting": "PLpro from SARS-CoV-2 [1]", "value": "> 100", "unit": "µM"}]}
{"compound": "C=CCO/N=C1\\c2ccccc2-c2nc(C#N)c(C#N)nc21", "note": "[DUB-IN-3]", "values": [{"measurement": "Extent of PLpro inhibition in IC50 characterization (in words)", "setting": "PLpro from SARS-CoV-2 [1]", "value": "only partial inhibition of PLpro"}, {"measurement": "Extent of PLpro inhibition in IC50 assay (in words)", "setting": "PLpro from SARS-CoV-2 [2]", "value": "simple inhibition curve that did not reach its plateau at the highest inhibitor concentration"}, {"measurement": "IC50", "setting": "PLpro from SARS-CoV-2 [2]", "value": "> 10", "unit": "µM"}]}
{"compound": "CC(=O)O/N=C1\\C(=O)N(Cc2cc(Cl)ccc2Cl)c2ccc(Cl)cc21", "note": "[LDN-57444]", "values": [{"measurement": "IC50", "setting": "PLpro from SARS-CoV-2 [1]; [5]", "value": "> 100", "unit": "µM"}, {"measurement": "PLpro inhibition in initial screening", "setting": "PLpro from SARS-CoV-2 [3]; [6]", "value": "inhibited PLpro partially but at significant levels"}]}
{"compound": "Cc1ccc(S(=O)(=O)Nc2cc(C(F)(F)F)ccc2C(=O)Nc2nc(-c3ccccc3)cs2)cc1", "note": "[ML364]", "values": [{"measurement": "Extent of PLpro inhibition in IC50 characterization (in words)", "setting": "PLpro from SARS-CoV-2 [1]; [7]", "value": "did not show strong concentration-dependent inhibition of PLpro"}, {"measurement": "PLpro inhibition in initial screening", "setting": "PLpro from SARS-CoV-2 [3]; [6]", "value": "significant quenching effects leading to negative signals"}]}
{"compound": "Cc1ccc(/C=C2\\CNC/C(=C\\c3ccc(C)cc3)C2=O)cc1", "note": "[NSC63283]", "values": [{"measurement": "IC50", "setting": "PLpro from SARS-CoV-2 [1]; [5]", "value": "> 100", "unit": "µM"}]}
{"compound": "CC(=O)c1cc([N+](=O)[O-])c(Sc2cccc(Cl)c2Cl)s1", "note": "[P005091]", "values": [{"measurement": "IC50", "setting": "PLpro from SARS-CoV-2 [1]; [5]", "value": "> 100", "unit": "µM"}, {"measurement": "PLpro inhibition in initial screening", "setting": "PLpro from SARS-CoV-2 [3]; [6]", "value": "inhibited PLpro partially but at significant levels"}]}
{"compound": "CC(=O)c1cc([N+](=O)[O-])c(Sc2ccc(F)cc2F)s1", "note": "[P22077]", "values": [{"measurement": "IC50", "setting": "PLpro from SARS-CoV-2 [1]; [5]", "value": "> 100", "unit": "µM"}, {"measurement": "PLpro inhibition in initial screening", "setting": "PLpro from SARS-CoV-2 [3]; [6]", "value": "inhibited PLpro partially but at significant levels"}]}
{"compound": "N#CSc1cc(SC#N)c(N)nc1N", "note": "[PR-619]", "values": [{"measurement": "Extent of PLpro inhibition in IC50 characterization (in words)", "setting": "PLpro from SARS-CoV-2 [1]; [7]", "value": "strongly inhibited PLpro at concentrations above 1 μM; also recorded: can fully inhibit PLpro at 200 µM"}, {"measurement": "IC50", "setting": "PLpro from SARS-CoV-2 [2]", "value": "12.9 ± 2.4", "unit": "µM"}, {"measurement": "PLpro inhibition in initial screening", "setting": "PLpro from SARS-CoV-2 [3]; [6]", "value": "significant quenching effects leading to negative signals"}]}
{"compound": "O=C1c2ccccc2C(=O)c2oc(-c3ccccc3)nc21", "note": "[SJB2–043]", "values": [{"measurement": "Extent of PLpro inhibition in IC50 characterization (in words)", "setting": "PLpro from SARS-CoV-2 [1]; [7]", "value": "only partial inhibition of PLpro"}, {"measurement": "Extent of PLpro inhibition in IC50 characterization (in words)", "setting": "PLpro from SARS-CoV-2 [1]; Z-LRGG-AMC substrate, highest tested concentration 200 μM, listed as SBJ2–043", "value": "can only partially inhibit PLpro"}, {"measurement": "Extent of PLpro inhibition in IC50 assay (in words)", "setting": "PLpro from SARS-CoV-2 [2]", "value": "did not inhibit PLpro completely"}, {"measurement": "IC50", "setting": "PLpro from SARS-CoV-2 [2]", "value": "0.091 ± 0.024", "unit": "µM"}, {"measurement": "PLpro inhibition in initial screening", "setting": "PLpro from SARS-CoV-2 [3]; [6]", "value": "inhibited PLpro partially but at significant levels"}]}
{"compound": "O=C1c2ccccc2C(=O)c2oc(-c3cccnc3)nc21", "note": "[SJB3–019A]", "values": [{"measurement": "Extent of PLpro inhibition in IC50 characterization (in words)", "setting": "PLpro from SARS-CoV-2 [1]; [7]", "value": "only partial inhibition of PLpro"}, {"measurement": "IC50", "setting": "PLpro from SARS-CoV-2 [1]; [5]", "value": "8.15 ± 3.59", "unit": "µM"}, {"measurement": "PLpro inhibition in initial screening", "setting": "PLpro from SARS-CoV-2 [3]; [6]", "value": "inhibited PLpro partially but at significant levels"}]}
{"compound": "O=C1CC(=O)c2c(Cl)c(Cl)c(Cl)c(Cl)c21", "note": "[TCID]", "values": [{"measurement": "Extent of PLpro inhibition in IC50 characterization (in words)", "setting": "PLpro from SARS-CoV-2 [1]", "value": "can fully inhibit PLpro at 200 µM"}, {"measurement": "IC50", "setting": "PLpro from SARS-CoV-2 [2]", "value": "10.5 ± 2.7", "unit": "µM"}, {"measurement": "PLpro inhibition in initial screening", "setting": "PLpro from SARS-CoV-2 [3]", "value": "inhibited PLpro activity almost completely"}, {"measurement": "IC50", "setting": "[4]", "value": 0.6, "unit": "µM"}]}
{"compound": "C=CC(=O)N1CC/C(=C\\c2ccc(F)c([N+](=O)[O-])c2)C(=O)/C(=C/c2ccc(F)c([N+](=O)[O-])c2)C1", "note": "[VLX1570]", "values": [{"measurement": "IC50", "setting": "PLpro from SARS-CoV-2 [1]; [5]", "value": "> 100", "unit": "µM"}]}
{"compound": "HBX19818", "values": [{"measurement": "IC50", "setting": "PLpro from SARS-CoV-2 [1]; [5]", "value": "> 100", "unit": "µM"}, {"measurement": "PLpro inhibition in initial screening", "setting": "PLpro from SARS-CoV-2 [3]; [6]", "value": "inhibited PLpro partially but at significant levels"}]}
